Laboratory results from patent publication US7968554B2, “Pyrazolo[3,4-d]pyrimidine derivatives” (Hoffman-La Roche Inc., priority 2007, dated 2011).

Each compound was assayed against T1, c-Raf (Homo sapiens, UniProt P04049) (assay: c-Raf HTRF assay with 6H-MEK as substrate (dose response)). Settings: kinase enzyme inhibition, 6H-MEK substrate, read-out: cRaf IC50.
T1 construct: made in house; host or cells: baculovirus, High-5 (Hi5) insect cells, co-infected with FLAG-vSrc virus
Format: biochemical
Experimental: Kinase Enzyme Inhibition Assay (IC50)
c-Raf HTRF Assay With 6H-MEK as Substrate (Dose Response)
The assay utilizes 6H-MEK as the substrate. Upon c-Raf phosphorylation, phosphorylated 6H-MEK is detected with rabbit anti-phospho-MEK1/2, Eu-labeled anti-rabbit, and APC-labeled anti-6H antibodies.
Reagents and Instruments:
• Enzyme: cloned human c-Raf with EE-tag; phosphorylated (co-expressed with v-src-FLAG in baculovirus Hi5 cells), 0.2 mg/mL (2.74 μM assuming a molecular weight of 73 kD) stored at −15° C. • Substrate: WT full-length 6H-MEK, 4.94 mg/mL (154.4 μM assuming a MW of 32 kD) stored at −15° C. • Antibodies: Rabbit (α-P-(Ser 217/221)-MEK-1/2 Ab (from Cell Signaling, Cat. #9121B, Lot 14); Eu-(α-rabbit IgG (from Wallac, Cat. #AD0083, Lot 318663, 710 ug/mL, 4.4 μM); (α-6H-SureLight-APC (from Martek, Cat. #AD0059H, Lot E012AB01, 3.03 μM). • Reader: Envision from PerkinElmer, HTRF reading mode with 412 mirror • Assay Plate: Matrix all-black polypropylene plates (Cat. #4344) • Others: Weidman 384 polypropylene plates (REMP) for compound plate. Assay Procedure: • (1) Prepare Kinase Assay Buffer (KAB): 50 mM HEPES (HyClone) pH7, 10 mM MgCl2, 1 mM DTT, 0.1 mM […], and 0.3 mg/ml BSA. • (2) Prepare 6H-MEK (150 nM) in KAB. Add 12 μL/well to the assay plate. • (3) Prepare ATP (66 μM) in KAB. • (4) Dilute compounds to 2.4 mM and any positive controls to 480 μM in DMSO. Perform 10-point 3× dilution in DMSO. Withdraw 2.5 μL/well of DMSO solution and add to 27.5 μl/well ATP solution in (3). • (5) Mix, then add 6 μl/well of solution in (4) to the assay plate for a DMSO concentration of 2.1% during MEK phosphorylation. • (6) Prepare c-Raf (12 nM) in KAB. • (7) Add 6 μl/well of KAB in columns 1-2 and 6 μL/well of c-Raf in columns 3-24. • (8) Incubate at 37° C. for 30 min. • (9) Prepare rabbit (α-P-(Ser 217/221 )-MEK-1/2 Ab (1:240 from stock) in AB1: 50 mM HEPES pH7, 0.2 mg/mL BSA, and 43 mM EDTA. • (10) To stop reaction, add 6 μL/well of solution from (9) to the assay plate and incubate at 37° C. for 30 min. • (11) Prepare Eu-(α-rabbit IgG (9 nM) and (α-6H-SureLight-APC (120 nM) in AB2: 50 mM HEPES pH7 and 0.2 mg/mL BSA. • (12) Add 6 μl/well of solution from (11) to the assay plate. • (13) For determining the spectrum cross talk factor, prepare 2 samples following steps (1) to (10). For the blank sample, add 6 μl/well of AB2. For the cross talk factor sample, add 6 μL/well of Eu-anti rabbit IgG (9 nM). • (14) Incubate at room temperature for 1.5 hours. • (15) Read HTRF signals at 615 nm and 665 nm on the Envision. Normalize HTRF signals after spectrum cross-talk correction. Expression and Purification of c-Raf
N terminal EE-tagged c-Raf was expressed in High-5 cells. A five liter culture was co-transfected with virus for EE-c-Raf and FLAG-vSrc at a ratio of 1:2 and harvested after 48 hours. The cell pellet was lysed in TBS containing 5 mM EDTA, 50 mM KF, 20 mM Na pyrophosphate, 20 mM β-glycerolphosphate, 0.5 mM Na VO3, 1% NP-40 (w/v) and Complete Protease Tablets. The lysate was centrifuged at 20,000×g for 1 hour. The supernatant was incubated with 8 mL of anti-EE tag-Protein G Sepharose for 2 hours at 4° C. The resin was then washed with 30 volumes of the above buffer. The c-Raf protein was eluted by incubation with the above buffer containing 100 mg/mL of EE peptide for 1 hour at 4° C. The protein was concentrated using an Amicon Stir Cell with an YM10 membrane. The concentrated protein was dialyzed against TBS containing 1 mM DTT and 30% Glycerol. Protein concentration was determined by the BioRad DC method.
E. coli cells containing the plasmid for the expression of 6H-MEK1 (62-393) were grown in Rich Media and induced with 1 mM IPTG for 24 hours at 22° C. The cell pellet was resuspended in 50 mM potassium phosphate buffer, pH 8.0, 300 mM NaCl, 5 mM MgCl2, 10 mM CHAPS, 2 mM TCEP, and Complete Protease Inhibitor Tablets. Cells were disrupted by sonication. The lysate was cleared by centrifugation at 13,000×g for 45 minutes. […]

T1 sequence (P04049 whole entry): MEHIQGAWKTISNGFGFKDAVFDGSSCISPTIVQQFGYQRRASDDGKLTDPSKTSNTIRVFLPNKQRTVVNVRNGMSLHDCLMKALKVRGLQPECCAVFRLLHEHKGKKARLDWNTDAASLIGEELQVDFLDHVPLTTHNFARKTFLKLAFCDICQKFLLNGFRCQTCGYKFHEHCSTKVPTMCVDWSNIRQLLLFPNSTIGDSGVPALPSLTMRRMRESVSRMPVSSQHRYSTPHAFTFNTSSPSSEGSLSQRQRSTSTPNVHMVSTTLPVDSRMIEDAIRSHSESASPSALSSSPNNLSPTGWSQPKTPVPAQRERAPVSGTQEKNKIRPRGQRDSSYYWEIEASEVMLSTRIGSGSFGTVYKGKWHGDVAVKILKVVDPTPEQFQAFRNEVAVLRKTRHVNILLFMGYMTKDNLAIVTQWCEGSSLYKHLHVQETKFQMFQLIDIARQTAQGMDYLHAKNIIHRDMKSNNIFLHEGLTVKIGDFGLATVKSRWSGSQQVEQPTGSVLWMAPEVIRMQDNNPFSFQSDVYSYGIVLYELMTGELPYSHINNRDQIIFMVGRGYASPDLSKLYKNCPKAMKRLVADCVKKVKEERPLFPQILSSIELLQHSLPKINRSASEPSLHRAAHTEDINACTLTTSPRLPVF

IC50, < 10 µM:
Cc1ccc(C(=O)Nc2ccc(Cl)cc2)cc1OCc1nn(C)c2ncnc(N)c12 [Example 17, 3-(4-Amino-1-methyl-1H-pyrazolo[3,4-d]pyrimidin-3-ylmethoxy)-N-(4-chloro-phenyl)-4-methyl-benzamide]
Cc1ccc(NC(=O)c2cccc(Cl)c2)cc1OCc1nn(C)c2ncnc(N)c12 [Example 11, N-[3-(4-Amino-1-methyl-1H-pyrazolo[3,4-d]pyrimidin-3-ylmethoxy)-4-methyl-phenyl]-3-chloro-benzamide]
Cc1ccc(OCc2ccccc2)cc1OCc1nn(C)c2ncnc(N)c12 [Example 15, 3-(5-Benzyloxy-2-methyl-phenoxymethyl)-1-methyl-1H-pyrazolo[3,4-d]pyrimidin-4-ylamine]
Cc1ccc(OCc2ccc(Cl)cc2)cc1OCc1nn(C)c2ncnc(N)c12 [Example 19, 3-[5-(4-Chloro-benzyloxy)-2-methyl-phenoxymethyl]-1-methyl-1H-pyrazolo[3,4-d]pyrimidin-4-ylamine]
Cc1nnc(-c2ccc(C)c(OCc3nn(C)c4ncnc(N)c34)c2)o1 [Example 21, 1-Methyl-3-[2-methyl-5-(5-methyl-[1,3,4]oxadiazol-2-yl)-phenoxymethyl]-1H-pyrazolo[3,4-d]pyrimidin-4-ylamine]
Cc1ccc(NC(=O)c2ccc(NCCO)c(Cl)c2)cc1OCc1nn(C)c2ncnc(N)c12 [Example 9, N-[3-(4-Amino-1-methyl-1H-pyrazolo[3,4-d]pyrimidin-3-ylmethoxy)-4-methyl-phenyl]-3-chloro-4-(2-hydroxy-ethylamino)-benzamide]
Cc1noc(-c2ccc(C)c(OCc3nn(C)c4ncnc(N)c34)c2)n1 [Example 13, 4-Amino-1-1-methyl-3-[2-methyl-5-(3-methyl-[1,2,4]oxadiazol-5-yl)-phenoxymethyl]-1H-pyrazolo[3,4-d]pyrimidine]
Cn1nc(COc2cccc(OCc3ccccc3)c2)c2c(N)ncnc21 [Example 7, 3-(3-Benzyloxy-phenoxymethyl)-1-methyl-1H-pyrazolo[3,4-d]pyrimidin-4-ylamine]
